The species named for data set [1] is Homo sapiens. Description: Selectivity ratio of IC50 for recombinant human C-terminal MMP3 (83 to 255 residues) catalytic domain expressed in Escherichia coli to IC50 for recombinant human N-terminal 6His/flag-tagged BMP1 (121 to 721 residues) expressed in CHO cells.
The species named for data set [2] is Homo sapiens. Description: Selectivity ratio of IC50 for human ACE1 to IC50 for recombinant human N-terminal 6His/flag-tagged BMP1 (121 to 721 residues) expressed in CHO cells. In kind it is cell-based.
Another data set has as its target T1, Tolloid-like protein 2 (Homo sapiens, UniProt Q9Y6L7).
T1 sequence (Q9Y6L7 whole entry): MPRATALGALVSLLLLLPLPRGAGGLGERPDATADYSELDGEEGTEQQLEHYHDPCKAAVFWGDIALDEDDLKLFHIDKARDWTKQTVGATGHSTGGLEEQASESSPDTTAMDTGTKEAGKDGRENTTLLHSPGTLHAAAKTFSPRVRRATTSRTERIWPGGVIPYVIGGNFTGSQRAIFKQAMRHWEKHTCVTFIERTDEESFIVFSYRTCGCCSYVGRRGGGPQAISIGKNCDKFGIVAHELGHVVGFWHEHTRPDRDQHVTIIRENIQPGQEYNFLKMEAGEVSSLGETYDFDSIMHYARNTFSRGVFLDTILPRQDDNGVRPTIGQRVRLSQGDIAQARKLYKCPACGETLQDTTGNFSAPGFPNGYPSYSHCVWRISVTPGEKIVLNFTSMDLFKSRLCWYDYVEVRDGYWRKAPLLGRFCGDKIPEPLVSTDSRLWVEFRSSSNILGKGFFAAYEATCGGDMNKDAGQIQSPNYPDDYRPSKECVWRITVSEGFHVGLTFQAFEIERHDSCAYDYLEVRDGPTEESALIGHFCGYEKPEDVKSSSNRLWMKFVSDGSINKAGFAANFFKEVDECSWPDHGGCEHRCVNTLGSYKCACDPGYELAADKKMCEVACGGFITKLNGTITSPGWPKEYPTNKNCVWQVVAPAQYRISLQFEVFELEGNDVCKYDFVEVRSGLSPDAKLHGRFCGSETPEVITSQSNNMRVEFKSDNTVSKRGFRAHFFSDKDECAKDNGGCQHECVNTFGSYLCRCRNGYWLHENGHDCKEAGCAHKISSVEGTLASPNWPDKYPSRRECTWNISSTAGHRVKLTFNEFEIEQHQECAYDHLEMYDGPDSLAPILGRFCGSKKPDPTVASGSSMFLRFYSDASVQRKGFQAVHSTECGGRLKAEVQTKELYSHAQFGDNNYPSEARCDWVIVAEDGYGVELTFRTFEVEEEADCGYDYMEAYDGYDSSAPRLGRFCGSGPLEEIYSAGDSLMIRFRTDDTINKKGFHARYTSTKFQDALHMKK
Description: Inhibition of recombinant human N-terminal 6His-tagged TLL2 (26 to 1015 residues) expressed in CHO cells using ((5-FAM)-ELIDQYDVQRDDSSDGSLED-K(5,6 TAMRA)-CONH2) as substrate preincubated for 10 mins followed by substrate addition measured after 60 mins.

The target of a further data set is Cytochrome P450 3A4 (Homo sapiens, UniProt P08684). Description: Time dependent inhibition of CYP3A4 (unknown origin) at 33 uM measured over 15 mins relative to control. It is filed as ADME. The following applies: 0.25 h.
For data set [3], the species on record is Homo sapiens. Description: Selectivity ratio of IC50 for recombinant human His-tagged TACE (1 to 671 residues) expressed in insect cells to IC50 for recombinant human N-terminal 6His/flag-tagged BMP1 (121 to 721 residues) expressed in CHO cells.
For data set [4], the species on record is Homo sapiens. Description: Selectivity ratio of IC50 for recombinant human C-terminal MMP7 (78 to 250 residues) catalytic domain expressed in Escherichia coli to IC50 for recombinant human N-terminal 6His/flag-tagged BMP1 (121 to 721 residues) expressed in CHO cells.
Data set [5] addresses Macrophage metalloelastase (Homo sapiens, UniProt P39900). Description: Inhibition of MMP12 (unknown origin).
The species named for data set [6] is Homo sapiens. Description: Selectivity ratio of IC50 for ADAM10 (unknown origin) to IC50 for recombinant human N-terminal 6His/flag-tagged BMP1 (121 to 721 residues) expressed in CHO cells. It is filed as cell-based.
In another data set the test system is Rattus norvegicus. Description: Dose normalized AUC in po dosed rat. It is filed as ADME, organism-based. The following applies: in vivo.
For data set [7], the species on record is Homo sapiens. Description: Selectivity ratio of IC50 for ADAM9 (unknown origin) to IC50 for recombinant human N-terminal 6His/flag-tagged BMP1 (121 to 721 residues) expressed in CHO cells. It is filed as cell-based.
The species named for data set [8] is Homo sapiens. Description: Selectivity ratio of IC50 for MMP10 (unknown origin) to IC50 for recombinant human N-terminal 6His/flag-tagged BMP1 (121 to 721 residues) expressed in CHO cells. In kind it is cell-based.
Data set [9] is filed under the species Homo sapiens. Description: Selectivity ratio of IC50 for recombinant human C-terminal MMP14 (Tyr92 to Arg278 residues) catalytic domain expressed in Escherichia coli to IC50 for recombinant human N-terminal 6His/flag-tagged BMP1 (121 to 721 residues) expressed in CHO cells.
For data set [10], the species on record is Homo sapiens. Description: Selectivity ratio of IC50 for recombinant human C-terminal MMP9 (88 to 438 residues) catalytic domain expressed in Escherichia coli to IC50 for recombinant human N-terminal 6His/flag-tagged BMP1 (121 to 721 residues) expressed in CHO cells.
The species entered for data set [11] is Homo sapiens. Description: Selectivity ratio of IC50 for recombinant human C-terminal MMP13 (85 to 255 residues) catalytic domain expressed in Escherichia coli to IC50 for recombinant human N-terminal 6His/flag-tagged BMP1 (121 to 721 residues) expressed in CHO cells.
The species entered for data set [12] is Homo sapiens. Description: Selectivity ratio of IC50 for recombinant human C-terminal MMP1 (81 to 249 residues) catalytic domain expressed in Escherichia coli to IC50 for recombinant human N-terminal 6His/flag-tagged BMP1 (121 to 721 residues) expressed in CHO cells.
The species entered for data set [13] is Homo sapiens. Description: Selectivity ratio of IC50 for MMP8 (unknown origin) to IC50 for recombinant human N-terminal 6His/flag-tagged BMP1 (121 to 721 residues) expressed in CHO cells. It is filed as cell-based.

pIC50: −log10 of the molar value.

Chain of Cytochrome P450 3A4 (P08684 whole entry, the tested form may be a part): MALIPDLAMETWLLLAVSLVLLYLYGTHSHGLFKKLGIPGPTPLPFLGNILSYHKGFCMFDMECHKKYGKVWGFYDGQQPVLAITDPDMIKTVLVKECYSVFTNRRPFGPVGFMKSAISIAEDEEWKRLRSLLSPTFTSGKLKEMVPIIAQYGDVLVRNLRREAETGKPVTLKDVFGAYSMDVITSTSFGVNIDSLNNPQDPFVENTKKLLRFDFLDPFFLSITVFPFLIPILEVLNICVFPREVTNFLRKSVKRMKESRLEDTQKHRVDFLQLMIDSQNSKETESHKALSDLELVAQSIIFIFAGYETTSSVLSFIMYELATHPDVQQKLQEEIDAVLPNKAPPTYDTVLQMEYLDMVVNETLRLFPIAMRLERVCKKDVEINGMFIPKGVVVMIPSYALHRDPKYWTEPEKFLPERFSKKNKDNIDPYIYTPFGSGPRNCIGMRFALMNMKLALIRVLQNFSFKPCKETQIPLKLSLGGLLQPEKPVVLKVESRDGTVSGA
Chain of Macrophage metalloelastase (P39900 whole entry, the tested form may be a part): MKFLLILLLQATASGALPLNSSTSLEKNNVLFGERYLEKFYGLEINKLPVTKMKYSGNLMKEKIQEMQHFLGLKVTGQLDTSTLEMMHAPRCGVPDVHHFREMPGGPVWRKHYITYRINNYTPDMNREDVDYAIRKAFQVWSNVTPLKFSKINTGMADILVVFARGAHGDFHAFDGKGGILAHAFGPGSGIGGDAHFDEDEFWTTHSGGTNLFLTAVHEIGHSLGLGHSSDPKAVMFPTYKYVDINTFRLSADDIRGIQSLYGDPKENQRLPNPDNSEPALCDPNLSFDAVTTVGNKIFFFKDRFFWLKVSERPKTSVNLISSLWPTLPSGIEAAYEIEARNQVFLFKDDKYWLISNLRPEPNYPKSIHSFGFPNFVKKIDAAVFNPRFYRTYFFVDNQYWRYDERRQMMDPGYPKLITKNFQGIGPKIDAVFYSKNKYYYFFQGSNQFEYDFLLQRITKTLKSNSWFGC

The term pIC50 denotes the negative decadic logarithm of the IC50, by convention in mol/L. For `CCCCC[C@@H](C(=O)NCNC(=O)c1ccc(-c2ccccc2)o1)[C@@H](CC)N(O)C=O`, the Ratio IC50 in the data set listed under Homo sapiens [1], in the data set filed under Homo sapiens [2], in the data set listed under Homo sapiens [3], in the data set filed under Homo sapiens [4], in the data set listed under Homo sapiens [6] and in the data set listed under Homo sapiens [7] was over 30 in each case. Moreover, the Ratio IC50 in the data set listed under Homo sapiens [8], in the data set filed under Homo sapiens [9], in the data set listed under Homo sapiens [10], in the data set filed under Homo sapiens [11], in the data set listed under Homo sapiens [12] and in the data set filed under Homo sapiens [13] was over 30 throughout. Further, the figures for the pIC50 (at Tolloid-like protein 2; in data set [5]) were 6.80 and 5.00, respectively. For the same molecule, the “fold change (FC)” value at Cytochrome P450 3A4 is listed as 4.3. In addition, the AUC/dose with Rattus norvegicus was determined as 1.6 kg·h/L.
